Measured values published in US20110124842A1 (priority 2003, published 2011).
Where two headings read alike, the source gives them in different places. Bridges are numbered along the chain shown (N, C = ends). Where no end group is shown, it is not given here. [ ]: non-standard residue; d: D form. code O = not defined here; Orn = NCCC[C@H](N)C(=O)O; Aib = CC(C)(N)C(=O)O

Key:
IgG 4E10 = assay: Competitive ELISA (IC50): peptide competes with biotinylated 4E10-epitope peptide for IgG 4E10; format: binding, human; conditions: for increased binding affinity in comparison with its peptide control: 33-1 vs control 44-1, 104-2 vs control 104-1, ELISA; for higher affinity of 4E10 than to the original peptide KGND: as determined by surface plasmon resonance and ELISA
Experimental: IC50, were determined by competitive ELISA using a constant concentration of biotinylated peptide and IgG with a variable concentration of gp41 peptides. Microwells were coated overnight at 4° C. with 50 μl PBS containing neutravidin (Pierce; 4 μg/ml). […] A mixture of a biotinylated 4E10-epitope peptide, […](biotin)-NH2 (SEQ ID NO: 88) (20 nM), IgG 4E10 (0.2 nM), and the competing peptide analog (3-fold dilution series starting at 10 μM) in 0.4% non-fat dry milk, 0.02% Tween and PBS was incubated in a separate 96-well plate at 37° C. for 2 hours. After washing the blocked plate, the mixture of 4E10, biotinylated peptide and competing peptide was added to the wells. After 20 minutes at room temperature, the Wells were washed five times, and a 1:500 dilution of goat anti-human IgG F(ab′)2 HRP conjugate (Pierce) was added. Following incubation at RT for 40 minutes, the wells were washed five times, and developed by adding 50 μl of TMB solution (Pierce) according to the manufacturer's instructions. After ˜20 minutes, wells containing TMB solution were stopped by adding 50 μl of H2SO4 (2M) and the O.D. at 450 nm was read on a microplate reader (Molecular Devices). The concentration of competitor peptide corresponding to a half-maximal signal (IC50) was determined by interpolation of the resulting binding curve. Each peptide competitor was tested in duplicate in at least two separate experiments.
IC50s were determined by competitive ELISA using a constant concentration of biotinylated peptide and IgG with a variable concentration of gp41 peptides. Microwells were coated overnight at 4° C. with 50 μl PBS containing neutravidin (Pierce; 4 μg/ml). […] Meanwhile, a mixture of a biotinylated 4E10-peptide epitope, […](biotin)-NH2 (SEQ ID NO: 88), (20 nM), IgG 4E10 (0.2 nM), and the competing peptide analogue (3-fold dilution series starting at 10 μM) in 0.4% NFDM, 0.02% Tween and PBS was incubated in a separate 96-well plate at 37° C. for 2 h. After washing the blocked plate, the mixture of 4E10, biotinylated peptide and competing peptide was added to the wells. After 20 min at room temperature, the wells were washed five times, and a 1:500 dilution of goat anti-human IgG F(ab′)2 HRP conjugate (Pierce) was added. Following incubation at RT for 40 min, the wells were washed five times, and developed by adding 50 μl of H2SO4 (2 M), and the O.D. at 450 nm was read on a microplate reader (Molecular Devices). The concentration of competitor peptide corresponding to a half-maximal signal (IC50) was determined by interpolation of the resulting binding curve. Each peptide competitor was tested in duplicate in at least two separate experiments.

Fab 4E10 [1] = assay: Surface plasmon resonance (Biacore 2000), Fab 4E10 on CM5 chip; format: binding, human
Experimental: The affinitiefs of the peptide analogs for 4E10 were also measured by surface plasmon resonance. Surface plasmon resonance experiments were performed using a Biacore 2000 instrument (Uppsala, Sweden). Around 2,200 response units (RU) of Fab 4E10 were coated on CM5 chips. The carboxyl groups on the chip were activated with 1-ethyl-3-(3-dimethylaminopropyl)carbodiimide hydrochloride (EDC) and N-hydroxysuccinimide (NHS). Fifty micrograms of Fab were diluted in 10 mM sodium acetate pH 4.5; a flow rate of 5 μl/min was used. Unreacted carboxyl groups were blocked with 1M ethanolamine at pH 8.5. The control was treated in the same fashion without any antibody present. Different amounts of free peptides were then passed over the surfaces at 30 or 50 μl/min for 2 min. Regeneration was done in HPS-EP buffer, 0.25 NaCl (Biacore) in 10 minutes. The amount of salt was increased compared to the commercial buffer to reduce the non-specific binding. For data evaluation, the BIAevaluation software was used. RI and Rmax were controlled, double referencing were done (0 concentration and start point). Analyses were performed to achieve the best curve fitting and small chi^2 (<1).
Surface plasmon resonance experiments were performed using a Biacore 2000 instrument (Uppsala, Sweden).
Chip preparation: around 2,200 response units (RU) of Fab 4E10 were coated on CM5 chips. The carboxyl groups on the chip were activated with 1-ethyl-3-(3-dimethylaminopropyl) carbodiimide hydrochloride (EDC) and N-hydroxysuccinimide (NHS). Fifty micrograms of Fab was diluted in 10 mM sodium acetate pH 4.5; a flow rate of 5 μl/min was used. Unreacted carboxyl groups were blocked with 1M ethanolamine at pH 8.5. The control was treated in the same fashion without any antibody present.
Experiment: different amounts of free peptides were then passed over the surfaces at 30 or 50 μl/min for 2 min. Regeneration was done in HPS-EP buffer, 0.25 NaCl (Biacore) in 10 min. The amount of salt was increased compared to the commercial buffer to reduce the non-specific binding.
Data evaluation: the BIAevaluation software was used. RI and Rmax were controlled, double referencing were done (0 concentration and start point). Analyses were performed to achieve the best curve fitting and small chi^2 (<1).

[2] = target: recombinant IgG1(kappa) 4E10; assay: competitive ELISA: peptide against biotinylated …(biotin)-NH2 for IgG 4E10
[3] = target: recombinant IgG1(kappa) 4E10; assay: competitive ELISA
Fab 4E10 [4] = assay: SPR (Biacore 2000), Fab 4E10 on CM5 chip, peptide in flow
[5] = Table 5, unconstrained peptide analogs, 4E10 binding, read-out: IC50
[6] = Table 6, constrained analogs, 4E10 binding, read-out: IC50
[7] = Table 7, 4E10 peptide epitopes, read-out: IC50
[8] = read-out: IC50 (4E10 binding, competitive ELISA)
[9] = Table 7, 4E10 peptide epitopes, read-out: Kd
[10] = Table 6, constrained analogs, 4E10 binding, read-out: Kd

Fab 4E10, sequence (heavy, as listed by the source): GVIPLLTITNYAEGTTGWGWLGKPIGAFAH
recombinant IgG1(kappa) 4E10, sequence (heavy, as listed by the source): as above

KGWNWFDITNWGK [KGND]
IC50 (IgG 4E10; [5]): > 10000 nM
IC50 (IgG 4E10; [6]): > 10000 nM
IC50 (IgG 4E10; [7]): > 10000 nM
IC50 (IgG 4E10; [8]): 10000 nM

KKBNWFDITNWLWKBKBK-NH2 (KKXNWFDITNWLWKXKXK-NH2; not fully specified (residues 3, 15, 17); printed as KKBNWFDITNWLWKBKBK-NH2) [Peptide 102-2]
IC50 (IgG 4E10; [6]): 10 nM

NWFCITOWLWKKKK-NH2 (NWFCIT[code O]WLWKKKK-NH2; not fully specified; printed as NWFCITOWLWKKKK-NH2; reading uncertain) [Peptide 104-1]
IC50 (IgG 4E10; [5]): 40 nM
IC50 (IgG 4E10; [7]): 40 nM

NWFDITN-Aib-LWRR-NH2 [Peptide 33-1]
koff (Fab 4E10 [1]; Table 7): 0.13 s⁻¹
kon (Fab 4E10 [1]; Table 7): 431000 M⁻¹ s⁻¹
Kd (Fab 4E10 [1]; [9]): 302 nM
increased binding affinity in comparison with its peptide control (IgG 4E10): 3 fold
IC50 (IgG 4E10; [7]): 100 to 400 nM
higher affinity of 4E10 than to the original peptide KGND (IgG 4E10): approximately 10^3 fold

NWFDITNWLWKBKBK-NH2 [Peptide 102-1]
IC50 (IgG 4E10; [8]): 10 nM

NWFDITNWLWKKKK [Peptide 84-1, NWFDITNWLWKKKK-NH2]
Kd (Fab 4E10 [1]; Table 5, unconstrained peptide analogs, 4E10 binding, read-out: Kd): 100 nM
IC50 (IgG 4E10; [8]): 40 nM

NWFDITNWLWRR [Peptide 44-1, NWFDITNWLWRR-NH2]
IC50 (IgG 4E10; [7]): 600 nM

NWFc(CITO)WLWKKKK-NH2 (NWFCIT[code O]WLWKKKK-NH2; bridge 4-7; reading uncertain; also: printed as NWFc(CITO)WLWKKKK-NH2) [Peptide 104-2]
Kd (Fab 4E10 [1]; [10]): 17 nM
higher affinity of 4E10 than to peptide 33-1 (Fab 4E10 [1]; Table 7): about 17 fold
koff (Fab 4E10 [1]; Table 7): 0.0034 s⁻¹
kon (Fab 4E10 [1]; Table 7): 202000 M⁻¹ s⁻¹
Kd (Fab 4E10 [1]; [9]): 17 nM
Kd (Fab 4E10 [1]; read-out: Kd (Biacore)): 17 nM
increased binding affinity in comparison with its peptide control (IgG 4E10): 4 fold
IC50 (IgG 4E10; [6]): 10 nM
IC50 (IgG 4E10; [7]): 10 nM
higher affinity of 4E10 than to the original peptide KGND (IgG 4E10): approximately 10^3 fold
IC50 (IgG 4E10; [8]): 10 nM

SLWNWFDITNWLWKKKK [Peptide 84-4, SLWNWFDITNWLWKKKK-NH2]
IC50 (IgG 4E10; [5]): 120 nM

SLWNWFDITNWLWYIKKKK [SLWNWFDITNWLWYIKKKK-NH2]
IC50 (IgG 4E10; [8]): 10 nM

WNWFDITNWLWKKKK [Peptide 84-2, WNWFDITNWLWKKKK-NH2]
IC50 (IgG 4E10; [5]): 120 nM

c(CWFO)ITNWLWKKKK-NH2 (CWF[code O]ITNWLWKKKK-NH2; bridge 1-4; reading uncertain; also: printed as c(CWFO)ITNWLWKKKK-NH2) [Peptide 74-2]
Kd (Fab 4E10 [1]; [10]): 276 nM
IC50 (IgG 4E10; [6]): 230 nM

B1: peptide KGND (…) (peptide)
peptide: KGWNWFDITNWGK
modifications: not fully specified
IC50 [2]: > 10000 nM

B2: peptide 44-1, …-NH2 (peptide)
peptide: NWFDITNWLWRR-NH2
IC50 [2]: 600 nM

B3: peptide 33-1, NWFDITN-Aib-LWRR-NH2 (peptide)
peptide: NWFDITN[Aib]LWRR-NH2
modifications: N-terminus assumed
SMILES: CC[C@H](C)[C@H](NC(=O)[C@H](CC(=O)O)NC(=O)[C@H](Cc1ccccc1)NC(=O)[C@H](Cc1c[nH]c2ccccc12)NC(=O)[C@@H](N)CC(N)=O)C(=O)N[C@H](C(=O)N[C@@H](CC(N)=O)C(=O)NC(C)(C)C(=O)N[C@@H](CC(C)C)C(=O)N[C@@H](Cc1c[nH]c2ccccc12)C(=O)N[C@@H](CCCNC(=N)N)C(=O)N[C@@H](CCCNC(=N)N)C(N)=O)[C@@H](C)O
IC50 [2]: 100 to 400 nM
fold increase of binding affinity over its control peptide 44-1 [3]: 3 fold
Kd (Fab 4E10 [4]): 302 nM
koff (Fab 4E10 [4]): 0.13 s⁻¹
kon (Fab 4E10 [4]): 431000 M⁻¹ s⁻¹

B4: peptide 104-2, NWFc(CITO)WLWKKKK-NH2 (peptide)
peptide: NWFCIT[Orn]WLWKKKK-NH2
modifications: bridge 4-7; not fully specified (bridges); printed as peptide 104-2, NWFc(CITO)WLWKKKK-NH2
IC50 [2]: 10 nM
fold increase of affinity over its control peptide 104-1 [3]: 4 fold
Kd (Fab 4E10 [4]): 17 nM
koff (Fab 4E10 [4]): 0.0034 s⁻¹
kon (Fab 4E10 [4]): 202000 M⁻¹ s⁻¹

B5: peptide 102-2, KKB…BKBK-NH2 (peptide)
peptide: KK[Aib]NWFDITNWLWK[Aib]K[Aib]K-NH2
modifications: N-terminus assumed
SMILES: CC[C@H](C)[C@H](NC(=O)[C@H](CC(=O)O)NC(=O)[C@H](Cc1ccccc1)NC(=O)[C@H](Cc1c[nH]c2ccccc12)NC(=O)[C@H](CC(N)=O)NC(=O)C(C)(C)NC(=O)[C@H](CCCCN)NC(=O)[C@@H](N)CCCCN)C(=O)N[C@H](C(=O)N[C@@H](CC(N)=O)C(=O)N[C@@H](Cc1c[nH]c2ccccc12)C(=O)N[C@@H](CC(C)C)C(=O)N[C@@H](Cc1c[nH]c2ccccc12)C(=O)N[C@@H](CCCCN)C(=O)NC(C)(C)C(=O)N[C@@H](CCCCN)C(=O)NC(C)(C)C(=O)N[C@@H](CCCCN)C(N)=O)[C@@H](C)O
IC50 [2]: 10 nM

B6: peptide 84-2, …-NH2 (peptide)
peptide: WNWFDITNWLWKKKK-NH2
IC50 [2]: 120 nM

B7: peptide 102-1, …BKBK-NH2 (peptide)
peptide: NWFDITNWLWK[Aib]K[Aib]K-NH2
modifications: N-terminus assumed
SMILES: CC[C@H](C)[C@H](NC(=O)[C@H](CC(=O)O)NC(=O)[C@H](Cc1ccccc1)NC(=O)[C@H](Cc1c[nH]c2ccccc12)NC(=O)[C@@H](N)CC(N)=O)C(=O)N[C@H](C(=O)N[C@@H](CC(N)=O)C(=O)N[C@@H](Cc1c[nH]c2ccccc12)C(=O)N[C@@H](CC(C)C)C(=O)N[C@@H](Cc1c[nH]c2ccccc12)C(=O)N[C@@H](CCCCN)C(=O)NC(C)(C)C(=O)N[C@@H](CCCCN)C(=O)NC(C)(C)C(=O)N[C@@H](CCCCN)C(N)=O)[C@@H](C)O
IC50 [2]: 10 nM

B8: peptide 74-2, c(CWFO)…-NH2 (peptide)
peptide: CWFXITNWLWKKKK
modifications: cyclic thioether between Cys 1 and ornithine (O) 4; C-terminal amide
IC50 [2]: 230 nM
Kd (Fab 4E10 [4]): 276 nM

B9: peptide 119, …BKBKK-NH2 (peptide)
peptide: NWFDITNWLWYIKXKXKK
modifications: B = Aib at positions 14 and 16; C-terminal amide
IC50 [2]: 10 nM

B10: peptide 104-1, NWFCITOWLWKKKK-NH2 (acyclic control) (peptide)
peptide: NWFCIT[Orn]WLWKKKK-NH2
modifications: not fully specified; printed as NWFCITOWLWKKKK-NH2
IC50 [2]: 40 nM
